The record followed here is PubChem BioAssay AID435031 (Sanford-Burnham Center for Chemical Genomics, 2010).

The source made the active and inactive calls. The rule behind the calls is not given here.

By CC50 is commonly meant the concentration at which the toxic effect on the cells reaches its halfway point.

The assay relates to cytotoxicity counter-screen, luminescence read-out. In words: cytotoxicity of HIV fusion inhibitor analogs, SAR follow-up, cytotoxicity control for HIV fusion inhibitor project, cell-based, luminescence (AID 435031).
Turning to `CSc1nnc(-c2ccccc2N=Cc2c(C)[nH]n(-c3ccc4ccccc4c3)c2=O)c(=O)[nH]1`, the CC50 is > 100 µM (inactive).
For `COc1cc(C=NNc2ccc(Cl)c(C(=O)O)c2)ccc1OC(=O)c1ccccc1F`, the CC50 is > 100 µM (inactive).
In the case of `O=c1c(=Cc2cc([N+](=O)[O-])cc([N+](=O)[O-])c2O)sc2nc3ccccc3n12`, the CC50 is > 100 µM (inactive).
In the case of `O=C1NC(=S)N(c2ccc(F)cc2)C(=O)/C1=C/c1ccco1`, the CC50 is > 100 µM (inactive).
With `O=C(O)CCCN1C(=O)/C(=C/c2ccc(-c3nc4ccccc4s3)o2)SC1=S`, the CC50 is > 100 µM (inactive).
With `COc1ccccc1NS(=O)(=O)c1cccc(-n2c(O)c(C=Nc3ccccc3C(=O)O)c3ccccc3c2=O)c1`, the CC50 is > 100 µM (inactive).
Consider `O=C(O)c1ccccc1N=Nc1c(O)[nH]c2ccc([N+](=O)[O-])cc12`, for which the CC50 was > 100 µM (inactive).
As for `CCOC(=O)C1=C(C)N=c2sc(=Cc3ccc(OCC(=O)O)cc3)c(=O)n2C1c1ccc(OC(C)C)cc1` (stereo unspecified), the CC50 was 32 µM.
The result for `COc1cc(/C=C2\SC(=O)N(c3ccccc3Cl)C2=O)cc([N+](=O)[O-])c1O` reads > 100 µM (inactive).
The result for `COc1ccc(OC)c(N2C(=O)/C(=C/c3ccco3)C(=O)NC2=S)c1` reads > 100 µM (inactive); that for `CC(C)(C)c1cc(-c2csc(Nc3ccccc3)[n+]2Cc2ccc(C(=O)O)cc2)cc(C(C)(C)C)c1O`, 13.7 µM.
As to `O=C(O)c1ccccc1C(=O)N(Cc1cccc(Oc2ccc(Cl)cc2)c1)[C@H]1CCCc2ccccc21`, the CC50 was 19 µM.
With `COc1cc(/C=N/NS(=O)(=O)c2ccc3ccccc3c2)ccc1OCc1ccc(C(=O)O)cc1`, the CC50 was > 100 µM (inactive).
On to `Cc1ccc(S(=O)(=O)Oc2ccc(/C=C3/C(=N)N4C(=NC3=O)SN=C4S(C)(=O)=O)cc2)cc1`, for which the CC50 is 91 µM.
On to `CS(=O)(=O)C1=NSC2=NC(=O)/C(=C\c3ccc(OS(=O)(=O)c4ccccc4)cc3)C(=N)N21`, for which the CC50 was > 100 µM (inactive).
Consider `Oc1c(Cl)cc(Cl)c(Cl)c1Cc1c(O)c(Cl)cc(Cl)c1Cl`, for which the CC50 is 18 µM.
`CC1(C)CC(=O)C2=C(C1)c1c(ccc3ccccc13)NC2c1cc([N+](=O)[O-])cc([N+](=O)[O-])c1O` (stereo unspecified): the CC50 is > 100 µM (inactive).
Consider `COC(=O)c1sc(-c2ccc(C(C)(C)C)cc2)cc1NC(=O)c1ccccc1C(=O)O`, for which the CC50 is 17 µM.
Turning to `CC(C)S(=O)(=O)C1=NSC2=NC(=O)/C(=C\c3ccc(-c4cccc(C(=O)O)c4)o3)C(=N)N21`, the CC50 is > 100 µM (inactive).
On to `CCOC(=O)c1sc(N2C(=O)C(O)=C(C(=O)c3ccc(C)o3)C2c2cccc([N+](=O)[O-])c2)nc1C` (stereo unspecified), for which the CC50 was > 100 µM (inactive).
`Cc1c(Cl)cccc1NS(=O)(=O)c1ccc2c(c1)C1C=CCC1C(c1ccc(C(=O)O)cc1)N2` (stereo unspecified): the CC50 is > 100 µM (inactive).
`CC(C)S(=O)(=O)C1=NSC2=NC(=O)/C(=C\c3ccc(-c4ccccc4)o3)C(=N)N21`: the CC50 is > 100 µM (inactive).
On to `N#C/C(=C\c1ccc(OCc2ccc(Cl)cc2)cc1)C(=O)Nc1cccc(C(=O)O)c1`, for which the CC50 is > 100 µM (inactive).
Take `COc1cc(C=NNc2ccc(Cl)c(C(=O)O)c2)ccc1OC(=O)c1ccc(F)cc1`: the CC50 was > 100 µM (inactive).
In the case of `CCC(C)(C)C1CCc2c(sc(NC(=O)c3ccccc3C(=O)O)c2C#N)C1` (stereo unspecified), the CC50 was 22 µM.
As to `O=[N+]([O-])c1cc([N+](=O)[O-])c2oc(-c3ccccc3)c(Br)c2c1O`, the CC50 is > 100 µM (inactive).
In the case of `CCC(Sc1nc2ccsc2c(=O)n1Cc1ccc(C(=O)O)cc1)C(=O)Nc1ccc(C)c(Cl)c1` (stereo unspecified) it was > 100 µM (inactive); in that of `O=C(N/N=C/c1c(O)n(C2CCCCC2)c(=S)[nH]c1=O)c1ccccc1O`, > 100 µM (inactive).
Take `CS(=O)(=O)C1=NSC2=NC(=O)/C(=C\c3cccn3-c3ccc(Cl)cc3)C(=N)N21`: the CC50 is > 100 µM (inactive).
Turning to `O=C1NC(=S)N(c2ccc(F)cc2)C(=O)/C1=C\c1ccoc1`, the CC50 was > 100 µM (inactive).
As for `COc1ccc(C(=O)Oc2ccc(C=NNc3ccc(Cl)c(C(=O)O)c3)cc2OC)cc1`, the CC50 is > 100 µM (inactive).
